From ChEMBL document CHEMBL1148386, “(2S,1'S,2'R,3'R)-2-(2'-Carboxy-3'-hydroxymethylcyclopropyl) glycine is a highly potent group 2 and 3 metabotropic glutamate receptor agonist with oral activity” (J Med Chem, 2004)

Legend:
[1] = target: Metabotropic glutamate receptor 1 (Rattus norvegicus, UniProt P23385); experiment: Metabotropic glutamate receptor 1 agonist activity as basal [3H]- IP formation in rat; assay type: functional
[2] = target: T1, Metabotropic glutamate receptor 7 (Rattus norvegicus, UniProt P35400); experiment: Metabotropic glutamate receptor 7 agonist activity to influence forskolin stimulated c-AMP formation in rat non neuronal cells; assay type: functional, cell-based
[3] = target: T2, Metabotropic glutamate receptor 4 (Rattus norvegicus, UniProt P31423); experiment: Metabotropic glutamate receptor 4 agonist activity to influence forskolin stimulated c-AMP formation in rat non neuronal cells; assay type: functional, cell-based
[4] = target: T3, Metabotropic glutamate receptor 6 (Rattus norvegicus, UniProt P35349); experiment: Metabotropic glutamate receptor 6 agonist activity to influence forskolin stimulated c-AMP formation in rat non neuronal cells; assay type: functional, cell-based
[5] = target: Metabotropic glutamate receptor 3 (Rattus norvegicus, UniProt P31422); experiment: Metabotropic glutamate receptor 3 agonist activity against forskolin stimulated c-AMP formation in rat non neuronal cells; assay type: functional, cell-based
[6] = target: Metabotropic glutamate receptor 2 (Rattus norvegicus, UniProt P31421); experiment: Metabotropic glutamate receptor 2 agonist activity against forskolin stimulated c-AMP formation in rat non neuronal cells; assay type: functional, cell-based
[7] = target: T4, Metabotropic glutamate receptor 8 (Rattus norvegicus, UniProt P70579); experiment: Metabotropic glutamate receptor 8 agonist activity against forskolin stimulated c-AMP formation in rat non neuronal cells; assay type: functional, cell-based
[8] = target: Metabotropic glutamate receptor 5 (Rattus norvegicus, UniProt P31424); experiment: Metabotropic glutamate receptor 5 agonist activity as basal [3H]- IP formation in rat; assay type: functional
[9] = target: T3, Metabotropic glutamate receptor 6; experiment: Metabotropic glutamate receptor 6 antagonist activity to influence forskolin stimulated c-AMP formation in rat non neuronal cells; assay type: functional, cell-based
[10] = target: T1, Metabotropic glutamate receptor 7; experiment: Metabotropic glutamate receptor 7 antagonist activity to influence forskolin stimulated c-AMP formation in rat non neuronal cells; assay type: functional, cell-based
[11] = target: T4, Metabotropic glutamate receptor 8; experiment: Metabotropic glutamate receptor 8 antagonist activity to influence forskolin stimulated c-AMP formation in rat non neuronal cells; assay type: functional, cell-based
[12] = target: T2, Metabotropic glutamate receptor 4; experiment: Metabotropic glutamate receptor 4 antagonist activity to influence forskolin stimulated c-AMP formation in rat non neuronal cells; assay type: functional, cell-based

Metabotropic glutamate receptor 1, sequence (P23385 whole entry): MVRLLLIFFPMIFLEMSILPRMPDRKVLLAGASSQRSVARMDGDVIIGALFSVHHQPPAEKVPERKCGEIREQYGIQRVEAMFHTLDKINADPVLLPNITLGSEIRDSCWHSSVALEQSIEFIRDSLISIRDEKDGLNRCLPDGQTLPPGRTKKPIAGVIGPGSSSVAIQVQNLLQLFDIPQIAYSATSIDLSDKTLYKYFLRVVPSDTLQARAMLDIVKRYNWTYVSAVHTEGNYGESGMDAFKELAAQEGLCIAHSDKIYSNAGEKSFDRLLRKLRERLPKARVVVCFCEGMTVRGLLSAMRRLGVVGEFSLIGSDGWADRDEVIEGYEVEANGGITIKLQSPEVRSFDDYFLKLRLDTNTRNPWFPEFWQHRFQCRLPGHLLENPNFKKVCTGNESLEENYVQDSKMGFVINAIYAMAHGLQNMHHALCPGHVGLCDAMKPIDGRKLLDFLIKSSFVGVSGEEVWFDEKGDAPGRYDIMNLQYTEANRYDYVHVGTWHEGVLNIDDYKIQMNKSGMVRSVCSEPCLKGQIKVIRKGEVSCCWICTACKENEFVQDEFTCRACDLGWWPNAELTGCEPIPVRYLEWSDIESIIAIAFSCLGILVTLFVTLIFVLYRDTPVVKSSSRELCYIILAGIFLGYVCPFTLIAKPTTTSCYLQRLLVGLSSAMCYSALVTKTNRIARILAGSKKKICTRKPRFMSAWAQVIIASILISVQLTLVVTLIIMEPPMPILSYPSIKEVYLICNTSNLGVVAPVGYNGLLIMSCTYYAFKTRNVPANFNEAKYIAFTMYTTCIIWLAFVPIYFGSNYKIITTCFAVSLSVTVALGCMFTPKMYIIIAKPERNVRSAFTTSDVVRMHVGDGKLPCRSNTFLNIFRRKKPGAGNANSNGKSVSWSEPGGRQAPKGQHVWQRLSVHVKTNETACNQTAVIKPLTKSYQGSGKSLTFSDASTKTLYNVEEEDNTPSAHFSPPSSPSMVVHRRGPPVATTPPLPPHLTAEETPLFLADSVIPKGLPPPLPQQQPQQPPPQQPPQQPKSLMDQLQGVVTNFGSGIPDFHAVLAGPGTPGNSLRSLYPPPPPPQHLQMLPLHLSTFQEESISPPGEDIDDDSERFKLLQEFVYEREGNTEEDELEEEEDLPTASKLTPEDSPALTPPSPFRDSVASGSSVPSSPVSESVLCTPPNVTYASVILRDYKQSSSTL
T3 sequence (P35349 whole entry): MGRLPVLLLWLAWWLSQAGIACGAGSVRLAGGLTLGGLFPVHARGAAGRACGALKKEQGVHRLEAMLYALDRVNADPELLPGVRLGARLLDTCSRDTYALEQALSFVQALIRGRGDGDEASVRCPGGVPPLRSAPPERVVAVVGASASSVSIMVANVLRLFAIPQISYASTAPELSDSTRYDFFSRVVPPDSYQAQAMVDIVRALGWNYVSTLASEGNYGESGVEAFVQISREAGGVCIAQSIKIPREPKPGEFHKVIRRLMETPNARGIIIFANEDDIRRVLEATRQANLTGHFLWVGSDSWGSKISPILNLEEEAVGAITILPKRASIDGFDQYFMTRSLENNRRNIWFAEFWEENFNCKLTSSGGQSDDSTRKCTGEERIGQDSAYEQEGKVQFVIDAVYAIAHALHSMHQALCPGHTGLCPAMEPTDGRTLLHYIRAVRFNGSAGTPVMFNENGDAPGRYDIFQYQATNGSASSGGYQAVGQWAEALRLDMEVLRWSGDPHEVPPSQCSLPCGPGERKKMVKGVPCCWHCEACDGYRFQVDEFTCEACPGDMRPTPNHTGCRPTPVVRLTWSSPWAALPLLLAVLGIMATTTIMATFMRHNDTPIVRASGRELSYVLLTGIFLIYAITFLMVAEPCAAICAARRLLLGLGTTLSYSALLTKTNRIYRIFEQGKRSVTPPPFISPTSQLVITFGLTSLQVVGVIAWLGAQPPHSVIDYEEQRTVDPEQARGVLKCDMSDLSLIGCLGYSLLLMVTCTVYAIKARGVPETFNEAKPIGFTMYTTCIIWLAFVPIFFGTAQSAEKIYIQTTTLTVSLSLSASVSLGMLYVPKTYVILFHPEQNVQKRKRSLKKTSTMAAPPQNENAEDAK
Metabotropic glutamate receptor 2, sequence (P31421 whole entry): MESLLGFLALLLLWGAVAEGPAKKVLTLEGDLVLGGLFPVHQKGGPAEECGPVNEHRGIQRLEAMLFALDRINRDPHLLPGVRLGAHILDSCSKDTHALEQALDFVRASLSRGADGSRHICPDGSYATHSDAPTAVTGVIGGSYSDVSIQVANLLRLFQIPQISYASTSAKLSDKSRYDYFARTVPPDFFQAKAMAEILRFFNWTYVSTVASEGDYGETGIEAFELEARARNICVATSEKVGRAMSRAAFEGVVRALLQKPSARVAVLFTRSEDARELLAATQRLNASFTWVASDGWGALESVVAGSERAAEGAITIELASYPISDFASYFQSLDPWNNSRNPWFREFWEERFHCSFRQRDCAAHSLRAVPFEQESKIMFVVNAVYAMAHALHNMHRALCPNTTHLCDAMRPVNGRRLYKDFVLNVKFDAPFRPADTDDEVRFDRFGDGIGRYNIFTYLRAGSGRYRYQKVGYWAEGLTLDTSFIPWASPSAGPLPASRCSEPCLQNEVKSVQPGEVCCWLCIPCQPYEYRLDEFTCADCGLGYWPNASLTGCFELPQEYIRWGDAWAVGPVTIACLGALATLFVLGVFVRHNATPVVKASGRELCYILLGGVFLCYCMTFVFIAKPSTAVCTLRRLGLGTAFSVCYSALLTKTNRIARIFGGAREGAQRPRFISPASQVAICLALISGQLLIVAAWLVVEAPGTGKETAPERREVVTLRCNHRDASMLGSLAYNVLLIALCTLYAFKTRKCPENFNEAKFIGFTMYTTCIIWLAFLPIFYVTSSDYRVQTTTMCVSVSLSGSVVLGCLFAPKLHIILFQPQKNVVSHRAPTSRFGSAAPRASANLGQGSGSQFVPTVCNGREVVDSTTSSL
T2 sequence (P31423 whole entry): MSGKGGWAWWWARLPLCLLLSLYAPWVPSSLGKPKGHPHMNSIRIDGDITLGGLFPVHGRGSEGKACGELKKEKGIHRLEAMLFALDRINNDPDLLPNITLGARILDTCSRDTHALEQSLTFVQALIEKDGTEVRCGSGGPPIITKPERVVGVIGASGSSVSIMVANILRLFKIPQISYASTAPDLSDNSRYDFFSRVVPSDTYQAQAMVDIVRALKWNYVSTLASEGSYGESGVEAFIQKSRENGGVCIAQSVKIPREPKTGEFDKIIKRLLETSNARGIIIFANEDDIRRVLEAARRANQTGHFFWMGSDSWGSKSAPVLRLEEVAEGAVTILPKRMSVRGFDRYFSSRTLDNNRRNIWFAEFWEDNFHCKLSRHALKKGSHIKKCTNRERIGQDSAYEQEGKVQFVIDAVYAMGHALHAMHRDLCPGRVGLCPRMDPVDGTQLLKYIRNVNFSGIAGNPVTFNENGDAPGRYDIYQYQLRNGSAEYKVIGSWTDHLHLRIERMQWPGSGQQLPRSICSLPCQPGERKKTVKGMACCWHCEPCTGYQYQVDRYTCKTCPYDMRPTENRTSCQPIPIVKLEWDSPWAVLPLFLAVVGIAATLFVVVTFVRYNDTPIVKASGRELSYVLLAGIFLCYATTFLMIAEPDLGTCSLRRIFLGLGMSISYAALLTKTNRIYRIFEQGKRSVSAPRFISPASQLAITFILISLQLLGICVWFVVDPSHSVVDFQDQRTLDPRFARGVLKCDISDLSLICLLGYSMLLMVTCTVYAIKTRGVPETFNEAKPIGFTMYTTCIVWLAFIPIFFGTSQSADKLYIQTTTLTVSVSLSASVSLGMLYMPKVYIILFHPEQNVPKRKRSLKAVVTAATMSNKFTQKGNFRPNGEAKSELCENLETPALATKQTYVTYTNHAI
Metabotropic glutamate receptor 5, sequence (P31424 whole entry): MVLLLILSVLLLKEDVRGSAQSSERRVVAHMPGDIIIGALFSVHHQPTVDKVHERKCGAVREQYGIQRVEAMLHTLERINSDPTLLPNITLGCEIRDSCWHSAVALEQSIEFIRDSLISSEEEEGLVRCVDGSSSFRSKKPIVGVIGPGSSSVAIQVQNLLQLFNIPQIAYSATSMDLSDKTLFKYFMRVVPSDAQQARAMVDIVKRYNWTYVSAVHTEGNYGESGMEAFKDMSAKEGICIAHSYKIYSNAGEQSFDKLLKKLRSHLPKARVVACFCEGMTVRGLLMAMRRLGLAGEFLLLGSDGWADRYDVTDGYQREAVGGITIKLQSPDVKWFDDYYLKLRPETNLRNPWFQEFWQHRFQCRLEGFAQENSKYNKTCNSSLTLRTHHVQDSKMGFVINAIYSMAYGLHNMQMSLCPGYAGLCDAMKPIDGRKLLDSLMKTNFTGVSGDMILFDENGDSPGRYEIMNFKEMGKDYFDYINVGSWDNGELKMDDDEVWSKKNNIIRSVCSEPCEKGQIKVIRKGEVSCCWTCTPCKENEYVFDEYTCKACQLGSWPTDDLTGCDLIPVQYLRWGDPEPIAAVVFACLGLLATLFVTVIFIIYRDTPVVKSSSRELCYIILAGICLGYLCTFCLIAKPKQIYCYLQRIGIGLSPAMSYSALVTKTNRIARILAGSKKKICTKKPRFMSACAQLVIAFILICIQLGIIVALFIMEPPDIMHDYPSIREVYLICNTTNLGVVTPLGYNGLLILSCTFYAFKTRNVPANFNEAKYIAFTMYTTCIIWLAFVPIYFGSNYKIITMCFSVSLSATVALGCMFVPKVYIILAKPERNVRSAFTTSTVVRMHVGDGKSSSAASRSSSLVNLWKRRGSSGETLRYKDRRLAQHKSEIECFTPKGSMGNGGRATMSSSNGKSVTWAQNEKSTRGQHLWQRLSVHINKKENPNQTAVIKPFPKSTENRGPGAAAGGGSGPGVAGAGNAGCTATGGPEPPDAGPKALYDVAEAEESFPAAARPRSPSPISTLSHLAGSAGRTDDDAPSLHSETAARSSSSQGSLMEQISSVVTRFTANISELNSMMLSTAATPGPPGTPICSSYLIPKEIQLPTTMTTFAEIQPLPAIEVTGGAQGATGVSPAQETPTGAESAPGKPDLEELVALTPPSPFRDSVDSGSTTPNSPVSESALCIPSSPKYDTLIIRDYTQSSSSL

| SMILES | EC50 [1] | EC50 [2] | EC50 [3] | EC50 [4] | EC50 [5] | EC50 [6] | EC50 [7] | EC50 [8] | EC50 [9] | EC50 [10] | EC50 [11] | EC50 [12] |
| --- | --- | --- | --- | --- | --- | --- | --- | --- | --- | --- | --- | --- |
| N[C@H](C(=O)O)c1ccc(C(=O)O)c(C(=O)O)c1 | 32 µM | > 100 µM | 8.8 µM | 3.6 µM | > 100 µM | > 100 µM | 0.031 µM | > 100 µM | – | – | – | – |
| N[C@H](C(=O)O)[C@H]1[C@H](CC(=O)O)[C@@H]1C(=O)O | > 100 µM | – | – | – | – | 0.3 µM | – | > 100 µM | – | – | – | – |
| N[C@H](C(=O)O)[C@H]1C[C@@H]1C(=O)O | 23 µM | 47 µM | 4 µM | 0.6 µM | 0.6 µM | 0.3 µM | 0.4 µM | 17 µM | – | – | – | – |
| N[C@H](C(=O)O)C1[C@@H](C(=O)O)[C@@H]1C(=O)O (some centres undefined) | > 100 µM | – | – | – | 0.2 µM | – | – | 389 µM | 40 µM | 40 µM | 32 µM | 23 µM |
| C[C@H]1[C@H](C(=O)O)[C@H]1[C@H](N)C(=O)O | > 100 µM | > 100 µM | > 100 µM | 1.2 µM | 0.038 µM | 0.008 µM | 1.32 µM | > 100 µM | – | – | – | – |
| N[C@@H](CCP(=O)(O)O)C(=O)O | > 100 µM | 175 µM | 0.32 µM | 0.055 µM | > 100 µM | 448 µM | 0.06 µM | > 100 µM | – | – | – | – |
| N[C@H](C(=O)O)[C@H]1[C@@H](CC(=O)O)[C@@H]1C(=O)O | > 100 µM | – | – | – | – | 0.1 µM | – | > 100 µM | – | – | – | – |
| N[C@H](C(=O)O)[C@@H]1[C@@H](C(=O)O)C1(F)F | – | – | – | – | – | 0.09 µM | – | – | – | – | – | – |
| NC(C(=O)O)c1ccc(P(=O)(O)O)cc1 (racemic) | > 500 µM | 185 µM | 5.2 µM | 4.7 µM | > 200 µM | > 300 µM | 0.21 µM | > 500 µM | – | – | – | – |
